# Paper PMC9304322, “Targeting retinoic acid receptor alpha-corepressor interaction activates chaperone-mediated autophagy and protects against retinal degeneration” (Nature Communications, 2022)
# Several values for one entry are separate records, joined by “and”; a condition that tells them apart may be missing. Identical values can stand only once.
# Tests used:
# [1] = test system: NIH3T3; experiment: Intracellular proteolysis of long half-life proteins; assay type: cell-based, mouse
# Method: Confluent cells were labelled with [^3H]leucine (2μCi/ml) (NEN-PerkinElmer Life Sciences) for 48 h and then extensively washed and maintained in medium with an excess of unlabeled leucine. Proteolysis was calculated from aliquots of the medium taken at different times and precipitated in trichloroacetic acid, as the amount of acid-precipitable radioactivity transformed to acid-soluble radioactivity at each time. Where indicated cell were treated during the chase with […] leupeptin (Sigma, #108975) and […] NH4Cl (to determine lysosomal degradation) or with 100 μm MRT 68921 dihydrochloride (Tocris, #5780) (to determine macroautophagy degradation).
# [2] = test system: NIH3T3 stably expressing the KFERQ-PS-Dendra; experiment: CMA activity, KFERQ-PS-Dendra fluorescent reporter in NIH3T3 mouse fibroblasts; assay type: cell-based; design: CMA activity (Fig. 1d), MEAN / CMA activity (Fig. 1e-g), mean / CMA activity (Fig. 1d), individual experiments / CMA activity, mean (Fig. S2c, second panel) / CMA activity, mean (Fig. S2c, first panel) / CMA activity, mean (Fig. S2c, third panel): unit not given here; conditions: for CMA activity (Fig. 1e-g), mean: n = 4
# Method: (§1) Cells were transduced with lentivirus carrying the KFERQ-PS-Dendra reporter as before. Cells were photoactivated by exposure to a 3.5 mA (current constant) light emitting diode (LED: Norlux, 405 nm) for 3 min and then plated in glass-bottom 96 well plates. At the desired times, cells were fixed with 4% PFA and imaged using high-content microscopy (Operetta system, Perkin Elmer). Images were quantified using the manufacturer’s software in a minimum of 1,200 cells in 9 independent fields per well. […] This was particularly important in the case of primary human cells where the efficiency of transduction was ~65%. To avoid confounding effects for drug-induced changes in cell volume or adherence to the plate that could bring a fraction of the cells per field outside of focus, we set a threshold to count only […] that have at least 1/10 of the average number of […] detected in the untreated wells for each cell type (3–4 puncta/cell in the case of NIH3T3 and N2a cells and 5 puncta/cell in primary human fibroblasts).
# [3] = test system: neuroblastoma cell line N2a expressing the KFERQ-PS-Dendra reporter; experiment: CMA activity, KFERQ-PS-Dendra reporter in N2a cells; assay type: cell-based, mouse; design: CMA activity, mean (Fig. S2a): unit not given here
# Method: as §1
# [4] = test system: NIH3T3 cells stably expressing the mCherry-GFP-LC3 reporter; experiment: Macroautophagy activity, mCherry-GFP-LC3 reporter; assay type: cell-based, mouse
# Method: Cells were transduced with a lentiviral vector expressing mCherry-GFP-LC3[35], fixed and flux determined as the conversion of dual fluorescence puncta (autophagosomes) into only red fluorescent puncta (autolysosomes). Flux was also measured by immunoblot for LC3 in cells incubated for 6 h with 20 mM NH4Cl/100 μM leupeptin, by discounting the intensity of LC3 in non-treated cells from that in cells treated with the inhibitors.
# [5] = c0 = 2 (axis unlabelled; ANOVA calls row factor Time)
smiles,measurement,setting,value
CC(=O)Nc1ccc(C2=Nc3ccc(Cl)cc3OC2)cc1 [CA77],duration of the increase in degradation of long-lived proteins,"[1]; NIH3T3, 10 μM",remained upregulated 24 h
same,"Lysosomal proteolysis, Mean (Fig. S3c)",[1]; Time 6,3.76
same,"Lysosomal proteolysis, Mean (Fig. S3c)",[1]; Time 12,7.75
same,"CMA activity (Fig. 1d), MEAN","[2]; 20 μM of each compound, n = 3 independent experiments",3.597
same,"CMA activity (Fig. 1d), individual experiments","[2]; 20 μM of each compound, single experiments",3.288 and 3.538 and 3.964
same,"CMA activity (Fig. 1e-g), mean","[2]; 12h, concentration 0.02 (unit not given)",6.451
same,"CMA activity (Fig. 1e-g), mean","[2]; 12h, concentration 0.2",6.218
same,"CMA activity (Fig. 1e-g), mean","[2]; 12h, concentration 2",6.38
same,"CMA activity (Fig. 1e-g), mean","[2]; 12h, concentration 5",31.6977
same,"CMA activity (Fig. 1e-g), mean","[2]; 12h, concentration 10",39.5886
same,"CMA activity (Fig. 1e-g), mean","[2]; 12h, concentration 20",52.9995
same,"CMA activity (Fig. 1e-g), mean","[2]; 12h, concentration 30",60.386
same,"CMA activity (Fig. 1e-g), mean","[2]; 12h, concentration 40",43.8824
same,"CMA activity (Fig. 1e-g), mean","[2]; 12h, concentration 50",33.4774
same,"CMA activity (Fig. 1e-g), mean","[2]; 24h, concentration 0.02",5.564
same,"CMA activity (Fig. 1e-g), mean","[2]; 24h, concentration 0.2",6.782
same,"CMA activity (Fig. 1e-g), mean","[2]; 24h, concentration 2",8.318
same,"CMA activity (Fig. 1e-g), mean","[2]; 24h, concentration 5",26.3626
same,"CMA activity (Fig. 1e-g), mean","[2]; 24h, concentration 10",39.2844
same,"CMA activity (Fig. 1e-g), mean","[2]; 24h, concentration 20",59.6703
same,"CMA activity (Fig. 1e-g), mean","[2]; 24h, concentration 30",82.4074
same,"CMA activity (Fig. 1e-g), mean","[2]; 24h, concentration 40",57.9474
same,"CMA activity (Fig. 1e-g), mean","[2]; 24h, concentration 50",59.2412
same,"CMA activity (Fig. 1h-j), mean, untreated (0) = 1","[2]; concentration 0.2, 12+12w (12 h, then 12 h after washing out)",0.8003
same,"CMA activity (Fig. 1h-j), mean, untreated (0) = 1","[2]; concentration 0.2, 12h",0.5989
same,"CMA activity (Fig. 1h-j), mean, untreated (0) = 1","[2]; concentration 0.2, 24h",0.8798
same,"CMA activity (Fig. 1h-j), mean, untreated (0) = 1","[2]; concentration 2, 12+12w",0.935
same,"CMA activity (Fig. 1h-j), mean, untreated (0) = 1","[2]; concentration 2, 12h",0.6146
same,"CMA activity (Fig. 1h-j), mean, untreated (0) = 1","[2]; concentration 2, 24h",1.079
same,"CMA activity (Fig. 1h-j), mean, untreated (0) = 1","[2]; concentration 5, 12+12w",4.471
same,"CMA activity (Fig. 1h-j), mean, untreated (0) = 1","[2]; concentration 5, 12h",3.053
same,"CMA activity (Fig. 1h-j), mean, untreated (0) = 1","[2]; concentration 5, 24h",3.42
same,"CMA activity (Fig. 1h-j), mean, untreated (0) = 1","[2]; concentration 10, 12+12w",4.902
same,"CMA activity (Fig. 1h-j), mean, untreated (0) = 1","[2]; concentration 10, 12h",3.813
same,"CMA activity (Fig. 1h-j), mean, untreated (0) = 1","[2]; concentration 10, 24h",5.096
same,"CMA activity (Fig. 1h-j), mean, untreated (0) = 1","[2]; concentration 20, 12+12w",5.399
same,"CMA activity (Fig. 1h-j), mean, untreated (0) = 1","[2]; concentration 20, 12h",5.105
same,"CMA activity (Fig. 1h-j), mean, untreated (0) = 1","[2]; concentration 20, 24h",7.74
same,"CMA activity (Fig. 1h-j), mean, untreated (0) = 1","[2]; concentration 30, 12+12w",7.708
same,"CMA activity (Fig. 1h-j), mean, untreated (0) = 1","[2]; concentration 30, 12h",5.817
same,"CMA activity (Fig. 1h-j), mean, untreated (0) = 1","[2]; concentration 30, 24h",10.6896
same,CMA activation compared with AR7,"[2]; fluorescent CMA reporter in mouse fibroblasts, basal and inducible CMA",> 40 % CMA of AR7
same,toxicity in cells,[2]; mouse fibroblasts,without noticeable toxicity
same,"CMA activity, mean relative to concentration 0 = 1 (Fig. S2b)","[3]; 12+12w, concentration 0.2",0.9934
same,"CMA activity, mean relative to concentration 0 = 1 (Fig. S2b)","[3]; 12+12w, concentration 2",0.9832
same,"CMA activity, mean relative to concentration 0 = 1 (Fig. S2b)","[3]; 12+12w, concentration 5",2.103
same,"CMA activity, mean relative to concentration 0 = 1 (Fig. S2b)","[3]; 12+12w, concentration 10",2.605
same,"CMA activity, mean relative to concentration 0 = 1 (Fig. S2b)","[3]; 12+12w, concentration 20",4.196
same,"CMA activity, mean relative to concentration 0 = 1 (Fig. S2b)","[3]; 12+12w, concentration 30",3.752
same,"CMA activity, mean (Fig. S2a)","[3]; 12h, concentration 0.02",2.724
same,"CMA activity, mean (Fig. S2a)","[3]; 12h, concentration 0.2",4.16
same,"CMA activity, mean relative to concentration 0 = 1 (Fig. S2b)","[3]; 12h, concentration 0.2",0.9543
same,"CMA activity, mean (Fig. S2a)","[3]; 12h, concentration 2",4.326
same,"CMA activity, mean relative to concentration 0 = 1 (Fig. S2b)","[3]; 12h, concentration 2",0.9922
same,"CMA activity, mean (Fig. S2a)","[3]; 12h, concentration 5",6.6688
same,"CMA activity, mean relative to concentration 0 = 1 (Fig. S2b)","[3]; 12h, concentration 5",1.5297
same,"CMA activity, mean (Fig. S2a)","[3]; 12h, concentration 10",9.952
same,"CMA activity, mean relative to concentration 0 = 1 (Fig. S2b)","[3]; 12h, concentration 10",2.283
same,"CMA activity, mean (Fig. S2a)","[3]; 12h, concentration 20",10.0764
same,"CMA activity, mean relative to concentration 0 = 1 (Fig. S2b)","[3]; 12h, concentration 20",2.311
same,"CMA activity, mean (Fig. S2a)","[3]; 12h, concentration 30",18.9972
same,"CMA activity, mean (Fig. S2a)","[3]; 12h, concentration 40",10.5987
same,"CMA activity, mean (Fig. S2a)","[3]; 12h, concentration 50",9.368
same,"CMA activity, mean (Fig. S2a)","[3]; 12h, concentration 60",2.016
same,"CMA activity, mean (Fig. S2a)","[3]; 24h, concentration 0.02",2.2722
same,"CMA activity, mean (Fig. S2a)","[3]; 24h, concentration 0.2",4.676
same,"CMA activity, mean relative to concentration 0 = 1 (Fig. S2b)","[3]; 24h, concentration 0.2",0.9787
same,"CMA activity, mean (Fig. S2a)","[3]; 24h, concentration 2",4.697
same,"CMA activity, mean relative to concentration 0 = 1 (Fig. S2b)","[3]; 24h, concentration 2",0.9831
same,"CMA activity, mean (Fig. S2a)","[3]; 24h, concentration 5",13.5914
same,"CMA activity, mean relative to concentration 0 = 1 (Fig. S2b)","[3]; 24h, concentration 5",2.845
same,"CMA activity, mean (Fig. S2a)","[3]; 24h, concentration 10",13.8573
same,"CMA activity, mean relative to concentration 0 = 1 (Fig. S2b)","[3]; 24h, concentration 10",2.901
same,"CMA activity, mean (Fig. S2a)","[3]; 24h, concentration 20",21.7668
same,"CMA activity, mean relative to concentration 0 = 1 (Fig. S2b)","[3]; 24h, concentration 20",4.556
same,"CMA activity, mean (Fig. S2a)","[3]; 24h, concentration 30",18.5853
same,"CMA activity, mean relative to concentration 0 = 1 (Fig. S2b)","[3]; 24h, concentration 30",3.89
same,"CMA activity, mean (Fig. S2a)","[3]; 24h, concentration 40",10.9146
same,"CMA activity, mean (Fig. S2a)","[3]; 24h, concentration 50",9.363
same,"CMA activity, mean (Fig. S2a)","[3]; 24h, concentration 60",0.7571
same,CMA activation in neuron-related mouse cells,[3]; in words,efficiently activated CMA
same,effect on macroautophagy,"[4]; NIH3T3, MRT-sensitive proteolysis, LC3-II flux, mCherry-GFP-LC3 reporter",did not have the inhibitory effect on macroautophagy
same,APG (Fig. S3e),[4]; [5],3.899
same,AUT (Fig. S3e),[4]; [5],0.5811
same,AV (Fig. S3e),[4]; [5],4.481
same,APG (Fig. S3e),[4]; c0 = 5 (axis unlabelled),3.275
same,AUT (Fig. S3e),[4]; c0 = 5 (axis unlabelled),0.7542
same,AV (Fig. S3e),[4]; c0 = 5 (axis unlabelled),4.029
same,APG (Fig. S3e),[4]; c0 = 10 (axis unlabelled),2.43
same,AUT (Fig. S3e),[4]; c0 = 10 (axis unlabelled),3.694
same,AV (Fig. S3e),[4]; c0 = 10 (axis unlabelled),6.1244
same,APG (Fig. S3e),[4]; c0 = 15 (axis unlabelled),2.828
same,AUT (Fig. S3e),[4]; c0 = 15 (axis unlabelled),3.073
same,AV (Fig. S3e),[4]; c0 = 15 (axis unlabelled),5.901
same,APG (Fig. S3e),[4]; c0 = 20 (axis unlabelled),2.044
same,AUT (Fig. S3e),[4]; c0 = 20 (axis unlabelled),3.746
same,AV (Fig. S3e),[4]; c0 = 20 (axis unlabelled),5.79
same,APG (Fig. S3e),[4]; c0 = 25 (axis unlabelled),2.063
same,AUT (Fig. S3e),[4]; c0 = 25 (axis unlabelled),4.0642
same,AV (Fig. S3e),[4]; c0 = 25 (axis unlabelled),6.127
same,APG (Fig. S3e),[4]; c0 = 30 (axis unlabelled),2.895
same,AUT (Fig. S3e),[4]; c0 = 30 (axis unlabelled),3.5777
same,AV (Fig. S3e),[4]; c0 = 30 (axis unlabelled),6.473
same,APG (Fig. S3e),[4]; c0 = 40 (axis unlabelled),2.857
same,AUT (Fig. S3e),[4]; c0 = 40 (axis unlabelled),3.822
same,AV (Fig. S3e),[4]; c0 = 40 (axis unlabelled),6.679
same,APG (Fig. S3e),[4]; c0 = 50 (axis unlabelled),4.838
same,AUT (Fig. S3e),[4]; c0 = 50 (axis unlabelled),2.082
same,AV (Fig. S3e),[4]; c0 = 50 (axis unlabelled),6.9193
